Results reported in article PMC7955127, “Preclinical small molecule WEHI-7326 overcomes drug resistance and elicits response in patient-derived xenograft models of human treatment-refractory tumors” (Cell Death & Disease, 2021).

Legend:
[1] = Measured physicochemical and solubility data
Source text: a Measured physicochemical and solubility data for WEHI-7326. […] Microsomal-predicted EH values are included.

134056 HGSOC PDX = assay: HGSOC PDX model 134056; format: in vivo, NSG mice; conditions: 134056 platinum-sensitive PDX; 20 mg/kg i.v. biweekly, 6 weeks
Description: Two to three mm ovarian tumor fragments were subcutaneously engrafted in the left flank of NSG mice and monitored by physical palpation for tumor growth and engraftment. Engrafted tumors were measured twice a week using digital Vernier calipers and maximum tumor diameter + perpendicular tumor length were digitally recorded into the Study Director software (v 3.0/4.0 StudyLog). Tumor volume was calculated automatically (tumor volume (mm^3) = 0.5236 x [larger diameter (mm) x smaller diameter (mm)^2]). Mice were randomized to treatment once their tumor volume reach 180–300 mm^3 and tumor measurements were performed twice a week up to 120 days or when the tumor volume reaches 700 mm^3.
Time to progressive disease (PD): Defined as the time (in days) from beginning of treatment to an increase in average tumor volume of >20% from the nadir (taken as the smallest average tumor volume recorded since treatment started or 200 mm^3 if nadir was <200 mm^3 as lesions smaller than this are difficult to measure with accuracy). Median time to harvest (TTH): Defined as the time (in days) from the beginning of treatment to day of harvest at 700 mm^3 and the median TTH was calculated and plotted using Kaplan-Meier curves. Based on ref. [27]. […]

[2] = system: H1437 (non-small cell lung carcinoma) xenograft; assay: H1437 tumor xenograft in nude mice; format: in vivo, BALB/c nude mice; conditions: i.p. three times weekly
Description: Tumor cell lines LIM2537, U87MGΔ2–7EGFR or H1437 were collected by trypsinization, counted and injected at 5 × 10^6 cells/ site subcutaneously on both flanks of BALB/c nude mice. Treatment with vehicle control or WEHI-7326 at given dose was initiated after 5 days. Drug or vehicle (100 μl) was injected intraperitoneally three times weekly. Control group and treatment group consisted of 8 mice each. Tumors were measured twice weekly with calipers. Tumor volumes were estimated using the modified ellipsoid formula V = 1/2 (length × width^2). The experiments were terminated when tumors in the control group started ulcerating or exceeded 17 mm in length, in line with the LICR/DoS Animal Ethics Committee guidelines (11/05 A).

CEM dEpoB30 = assay: Cell growth inhibition assay, CEM dEpoB30; format: cell-based; conditions: Homo sapiens; CEM dEpoB30, leukemia (taxane resistant, β-tubulin mutation); 72 h, Alamar Blue; mean of 3 ± SEM; read-out: IC50 (inhibition of cellular proliferation)
Description: Cells were plated at a density of between 500 to 5000 cells per well for adherent cell lines depending on doubling time, and 15,000 cells per well for lymphoblastic leukemia cell lines, in a 96-well plate in 200 μl of growth media. Plates were incubated overnight at 37 °C before adding the inhibitors. Inhibitors were serially diluted from the stock solutions in complete medium and added to the cells. […] Cell viability was assessed by the AlamarBlue (Invitrogen) or CellTiterBlue/Glo (Promega) method according to manufacturer’s instructions. The curve fits and IC50 values were generated in PRISM (GraphPad, San Diego, CA).
(§1) Parental human lymphoblastic leukemia cells (CEM) and their drug resistant derivatives (dEpoB30 and dEpoB300) were cultured in the presence of increasing amounts of WEHI-7326, paclitaxel or epothilone B. Cell survival was determined as described in Experimental Procedures. Shown are mean of 3 experiments +/- SEM. Dose response curves were fitted in PRISM using non-linear regression (4 parameter logistic) to calculate IC50 values.

CEM dEpoB300 = assay: Cell growth inhibition assay, CEM dEpoB300; format: cell-based; conditions: Homo sapiens; CEM dEpoB300, leukemia (taxane resistant, β-tubulin mutation); 72 h, Alamar Blue; mean of 3 ± SEM; read-out: IC50 (inhibition of cellular proliferation)
Description: Cells were plated at a density of between 500 to 5000 cells per well for adherent cell lines depending on doubling time, and 15,000 cells per well for lymphoblastic leukemia cell lines, in a 96-well plate in 200 μl of growth media. Plates were incubated overnight at 37 °C before adding the inhibitors. Inhibitors were serially diluted from the stock solutions in complete medium and added to the cells. Incubation in the presence of inhibitors was continued for […]. Cell viability was assessed by the AlamarBlue (Invitrogen) or CellTiterBlue/Glo (Promega) method according to manufacturer’s instructions. The curve fits and IC50 values were generated in PRISM (GraphPad, San Diego, CA).
as §1

322 T TNBC PDX = assay: TNBC PDX model 322T; format: in vivo, NOD-SCID-IL2Rγc–/– mice
Description: Cohorts of about 30 female mice were seeded with thawed single cell suspensions of early passage human breast tumors (passage 2 or 3). Briefly, 150,000–250,000 cells were resuspended in 10 µl of transplantation buffer (50% fetal calf serum, 10% of a 0.04% trypan blue solution and 40% PBS) and growth-factor-reduced Matrigel [BD] at a ratio of 3:1, and injected into the cleared mammary fat pads of 3- or 4-week-old NOD-SCID-IL2Rγc–/– female mice. Mice were monitored for tumor development three times weekly and tumor size measured using digital Vernier calipers. Tumor volume was estimated by measuring the minimum and maximum tumor diameters using the formula: (minimum diameter)^2 x (maximum diameter)/2. Once tumors arose, mice were randomized into treatment arms. Treatment was initiated when the tumor volume reached 80–120 mm^3. Randomization and tumor measurements were managed using the Study Director software (v 3.0, studylog). Mice were sacrificed at the first measurement where tumor volume exceeded 600 mm^3, or if their health deteriorated for reasons other than disease progression or drug toxicity (censored event).
Mice were treated with either docetaxel (10 mg/kg; i.p.; once), cisplatin (4 mg/kg; i.p.; once) or WEHI-7326 (20 mg/kg; twice a week (Monday and Thursday); i.v.). Vehicle treated mice were administered with the vehicle for WEHI-7326. Docetaxel was resuspended at 2 mg/ml in PBS:Tween-80:ethanol = 90:5:5 (v/v/v). WEHI-7326 was resuspended at 2 mg/ml in saline.

Structure (SMILES): COc1ccc(CNc2nc(NCc3ccc(CN)cc3)nc(NN3CC(=O)NC3=O)n2)cc1 [WEHI-7326]
- Lipophilicity [1]: very low
- Solubility in common dosing vehicles ([1]; 5% [w/v] glucose, 0.9% [w/v] saline and isotonic acetate buffer pH 5): soluble
- Stability in dosing vehicles ([1]; storage in common dosing vehicles): negligible degradation
- Median time to harvest (TTH) (134056 HGSOC PDX): 78 days
- Time to progressive disease (PD) (134056 HGSOC PDX): 56 days
- Tumor growth [2]: effective in reducing tumor growth
- IC50 (CEM dEpoB30): 1.67 ± 0.04 nM
- IC50 (CEM dEpoB300): 6.51 ± 0.08 nM
- Adverse effects in treatment arm (322 T TNBC PDX; 322 T PDX mice, 20 mg/kg i.v. twice a week, n = 10): 1 sick, 1 found dead
- Survival time (322 T TNBC PDX; 322 T PDX, docetaxel 10 mg/kg i.p. once, WEHI-7326 20 mg/kg i.v. biweekly): 18 days
